This is an account of results in ChEMBL document CHEMBL1150233, “Circumdatin G, a new alkaloid from the fungus Aspergillus ochraceus” (J Nat Prod, 2001).

The structures appear in SMILES notation.

The IC50 is the concentration that inhibits the measured activity by half.

The test is described as follows: Inhibition of HCV protease. Details: species or system Hepacivirus hominis.
On to `CC1Cc2cccc(O)c2C(=O)O1` (stereo not drawn) [MELLEIN], for which half-maximal inhibition (IC50) required 35 µM.
The compound `O=C1C=C2C(=CCOC2O)O1` (stereo not drawn) [PATULIN] showed an IC50 of 24.7 µM.
Regarding `CCCC(=O)c1cc2c(c(O)c1C)C(=O)C(=O)c1c(O)cccc1-2`, the IC50 came to 7.7 µM. Against the preceding compound, the IC50 is about 3.2-fold lower.
